From patent US12239647B2, “ALS treatment using induced regulatory T (iTREG) cells” (RAPA THERAPEUTICS, LLC, priority 2018, dated 2025)

Experiments:
[1] = tested on: human CD4+ and CD8+ T cells; test: RNA expression of T cell effector molecules after 3-day de-differentiation culture (Luminex Quantigene); type: cell-based; settings: 3-day culture, bead:T cell 1:3, temsirolimus 1 μM, Vitamin D 0.1 or 1.0 nM; relative to control Th1/Tc1 culture
Method: (§1) At the end of the de-differentiation interval, cells were harvested, RNA was isolated, and RNA expression analysis was performed by Luminex Quantigene method. All results shown represent relative RNA expression, with results normalized to a value of 1.0 for the Th1/Tc1 control culture.

[2] = tested on: human CD4+ and CD8+ T cells; test: RNA expression of de-differentiation transcription factors and IL-7 receptor alpha after 3-day culture (Luminex Quantigene); type: cell-based; settings: bead:T cell 1:3, temsirolimus 1 μM, relative to control culture
Method: as §1

[3] = tested on: human CD4+ and CD8+ T cells; test: RNA expression of Th1 transcription factors and HIF-1-α after 3-day culture (Luminex Quantigene); type: cell-based; settings: bead:T cell 1:3, temsirolimus 1 μM, Vitamin D 0.1 to 1.0 nM, relative to control culture
Method: as §1

[4] = tested on: human CD4+ and CD8+ T cells; test: Western blot for mTORC1-related molecule Raptor after 3-day de-differentiation culture; type: cell-based
Text: After the 3-day culture interval, the T cells were harvested, and protein was isolated and subjected to western blot analysis for the mTORC1 complex protein, Raptor, and the housekeeping gene, Actin.

[5] = tested on: human CD4+ and CD8+ T cells; test: Western blot for Raptor, Rictor, p70S6K and SGK1 after 3-day de-differentiation culture; type: cell-based; settings: combination agent de-differentiation: temsirolimus 1 μM, Vitamin D 0.03 to 1.0 nM, Daclizumab 50 μg/ml; relative to control culture
Text: After the 3-day culture interval, the T cells were harvested, and protein was isolated and subjected to western blot analysis for the mTORC1 complex protein, Raptor; the mTORC2 complex protein, Rictor; the post-mTORC1 protein p70S6K; the post-mTORC2 protein, SGK1; and the housekeeping gene, GAPDH.

[6] = tested on: human CD4+ and CD8+ T cells; test: T cell yield at day 13 after de-differentiation and re-stimulation without inhibitors; type: cell-based
Method: After 10 days (13 days of total culture), the T cells were harvested, enumerated, and evaluated by flow cytometry. FIG. 8 illustrates the effect of culture components during the de-differentiation interval on subsequent T cell yield (at day 13 of culture). […] After the 3-day interval, media was exchanged to fresh X-Vivo 20 without inhibitors, high-level co-stimulation was provided (3:1 bead-to-T cell ratio), and the T cell growth cytokines IL-2 (100 IU/ml) and IL-7 (10 ng/ml) were added. At day 13 of culture, viable T cells were enumerated and the overall yield is shown relative to day 0 input number.

[7] = tested on: CD4+ T cells; test: Flow cytometry of CD4+ T cell memory markers after de-differentiation interval; type: cell-based, human
Method: FIGS. 9A-9C illustrate the effect of culture components during the de-differentiation interval on CD4^+ T cell expression of memory markers (at day 13 of culture). […] After the 3-day interval, media was exchanged to fresh X-Vivo 20 without inhibitors, high-level co-stimulation was provided (3:1 bead-to-T cell ratio), and the T cell growth cytokines IL-2 (100 IU/ml) and IL-7 (10 ng/ml) were added. […] All results are shown relative to the value of CD4^+ T cells at culture initiation (last column in FIGS. 9A-9C; “Day 0 Input Value”).

[8] = tested on: CD8+ T cells; test: Flow cytometry of CD8+ T cell memory markers after de-differentiation interval; type: cell-based, human; settings: reducing or eliminating only temsirolimus from the initial culture interval (columns #5 and 6)
Method: After the 3-day interval, media was exchanged to fresh X-Vivo 20 without inhibitors, high-level co-stimulation was provided (3:1 bead-to-T cell ratio), and the T cell growth cytokines IL-2 (100 IU/ml) and IL-7 (10 ng/ml) were added. T cells were subjected to flow cytometry for evaluation of co-expression of CD8^+, CD62L^+, and CCR7^+ markers (left panel; evaluated at day 10 of culture); and co-expression of CD8^+, CD62L^+, CCR7^+, and CD127^+ markers (right panel; evaluated at day 10 of culture). All results are shown relative to the value of CD8^+ T cells at culture initiation (last column in FIGS. 10A-10B; “Day 0 Input Value”).

[9] = tested on: human CD4+ and CD8+ T cells; test: Cytokine secretion (Luminex) in extended hybrid Th2/TREG culture with temsirolimus or pemetrexed; type: cell-based; settings: hybrid TREG-Th2 condition; temsirolimus 1.0 μM or pemetrexed 10 nM
Text: (§2) FIGS. 21A-21D illustrates that extended culture of de-differentiated T cells in the hybrid Th2/TREG polarization condition results in the generation of T cells expressing with a predominant Th2 cytokine phenotype: IL-4, IL-5, and IL-13 secretion. […] At days 12, 20, and 32 of culture, the T cells were harvested, washed, and re-stimulated with 3/28 beads (3:1 ratio) for 24 hr; the resultant supernatant was harvested and tested for cytokine content by Luminex multi-analyte method. All results shown are expressed as cytokine level in pg per ml per 1×10^6 cells/ml/24 hr. The Th2 cytokine IL-10 was also evaluated: all values were less than 20 pg/ml per 1×10^6 cells/ml/24 hr.
as §2, with “22A-22D illustrate” for “21A-21D illustrates”, “IL-2, IFN-γ,” for “IL-4, IL-5,”, “GM-CSF” for “IL-13”, “inflammatory cytokines IL-17 and TNF-α were” for “Th2 cytokine IL-10 was”

[10] = tested on: human CD4+ and CD8+ T cells; test: Western blot for pro-apoptosis molecule BIM after 3-day de-differentiation culture; type: cell-based; settings: 3-day culture, bead:T cell 1:3; Vitamin D 0.1 nM, Daclizumab 50 μg/ml
Text: After the 3-day culture interval, the T cells were harvested, and protein was isolated and subjected to western blot analysis for the pro-apoptosis-related gene, BIM, and the housekeeping gene, Actin.
To assess this, we measured BIM levels in the T cells cultured with a low-strength of co-stimulation (1:3 bead-to-T cell ratio) and presence of the various inhibitors.

[11] = tested on: human CD4+ and CD8+ T cells; test: Cytokine secretion (Luminex) after 10-day re-differentiation in polarization conditions; type: cell-based; settings: lack of IL-4 inclusion in the T cell re-differentiation process
Text: FIGS. 16A-16C illustrate that the culture of de-differentiated T cells in hybrid Th2/TReg polarization condition results in the generation of T cells with a primitive Th2 cell cytokine phenotype: as indicated by high levels of IL-2 and IL-4 secretion and a low level of IL-5 secretion. Human CD4+ and CD8^+ T cells were subjected to a 3-day de-differentiation procedure and subsequent culture in media containing variable polarization culture conditions and variable presence of pemetrexed, as described in FIG. 13. Out of the total of n=24 culture conditions, only the cultures with favorable cell yields were further evaluated; all cultures shown that contained pemetrexed (“+”) were at the concentration of 10 nM. The TREG conditions above all contained IL-2, TGF-β, and IL-4 (“TReg”) unless indicated (“TReg, No IL4”). […] All results shown are expressed as cytokine level in pg per ml per 1×10^6 cells/ml/24 hr.
FIGS. 17A-17C illustrate that the culture of de-differentiated T cells in hybrid Th2/TReg polarization condition results in the generation of T cells with a primitive Th2 cell cytokine phenotype: as indicated by low levels of IL-10, IL-13, and IL-17 secretion. […] Out of the total of n=24 culture conditions, only the cultures with favorable cell yields were further evaluated; all cultures shown that contained pemetrexed (“+”) were at the concentration of 10 nM. […] All results shown are expressed as cytokine level in pg per ml per 1×10^6 cells/ml/24 hr.
FIGS. 18A-18C illustrates that the culture of de-differentiated T cells in hybrid Th2/TREG polarization condition results in the generation of T cells with a primitive Th2 cell cytokine phenotype: as indicated by low levels of IFN-gamma, TNF-alpha, and GM-CSF secretion. […] Out of the total of n=24 culture conditions, only the cultures with favorable cell yields were further evaluated; all cultures shown that contained pemetrexed (“+”) were at the concentration of 10 nM. […] All results shown are expressed as cytokine level in pg per ml per 1×10^6 cells/ml/24 hr.

[12] = tested on: CD4+ and CD8+ T cells; test: Flow cytometry of GATA3 and FOXP3 in Th2/TREG cell product after 6-day culture; type: cell-based, human; settings: control manufacturing culture that did not include IL-4
Text: After the 6-day culture, the T cells were harvested, stained for surface markers (CD4 and CD8) and intracellular molecule expression (GATA3 and FOXP3) and evaluated by flow cytometry. Results in FIGS. 26A-B show the FOXP3 and GATA3 expression for CD4+ and CD8+ T cells at the start of culture and after culture (Th2/TREG) as measured by flow cytometry. The percentages provided indicate the amount of cells considered positive for CD4+ or CD8+ and the intracellular marker (shown in boxes).

[13] = Vitamin D 1.0 nM in combination

CO[C@H]1C[C@@H]2CC[C@@H](C)[C@@](O)(O2)C(=O)C(=O)N2CCCC[C@H]2C(=O)O[C@H]([C@H](C)C[C@@H]2CC[C@@H](OC(=O)C(C)(CO)CO)[C@H](OC)C2)CC(=O)[C@H](C)/C=C(\C)[C@@H](O)[C@@H](OC)C(=O)[C@H](C)C[C@H](C)/C=C/C=C/C=C/1C [temsirolimus]
Granzyme B RNA expression [1]: reduction | IFN-gamma RNA expression [1]: reduction | IL-10 RNA expression [1]: reduction | IL-7 receptor alpha RNA expression [2, 13]: capable of up-regulating | KLF4 RNA expression [2, 13]: neither temsirolimus nor Vitamin D alone increased | KLF10 RNA expression [2, 13]: acts alone to beneficially up-regulate | Nanog RNA expression ([2]; Vitamin D 0.1 or 1.0 nM): up-regulation | HIF-1-α RNA expression [3]: did not down-regulate | STAT1 RNA expression [3]: acts alone to beneficially down-regulate | T-BET RNA expression [3]: acts alone to beneficially down-regulate | optimal dose for down-regulation of Raptor ([4]; combination of Vitamin D plus temsirolimus): 1.0 µM | Raptor expression ([4]; temsirolimus 0.3 μM (culture 9), versus 1.0 μM): higher levels of Raptor expression | Rictor expression (western blot, FIG. 6) [5]: effective | preferable concentration for T cell yield ([6]; de-differentiation interval): 1.0 µM | T cell yield at day 13 of culture ([6]; temsirolimus concentration reduced to 0.1 μM (column #7)): reduced the resultant T cell yield | CD4+ CD45RA+ naïve T cell population ([7]; elimination of temsirolimus during the initial culture interval (culture #6)): depletion of the naïve T cell population | frequency of CD4+ triple-positive (CD62L, CCR7, CD127) T cells ([7]; reducing or eliminating only temsirolimus from the initial culture interval (columns #5 and 6)): greatly reduced the frequency of triple-positive T cells | frequency of CD8+ triple-positive (CD62L, CCR7, CD127) T cells [8]: greatly reduced the frequency of triple-positive T cells | IL-5 secretion [9]: blunted | IL-13 secretion [9]: blunted

B1: Daclizumab: anti-IL-2 receptor monoclonal antibody (antibody, chains of the INN, looked up, V domains shown)
VH: QVQLVQSGAEVKKPGSSVKVSCKASGYTFTSYRMHWVRQAPGQGLEWIGYINPSTGYTEYNQKFKDKATITADESTNTAYMELSSLRSEDTAVYYCARGGGVFDYWGQGTLVTVSS
VL: DIQMTQSPSTLSASVGDRVTITCSASSSISYMHWYQQKPGKAPKLLIYTTSNLASGVPARFSGSGSGTEFTLTISSLQPDDFATYYCHQRSTYPLTFGQGTKVEVK
Raptor expression (western blot, normalized by actin) ([4]; 3-day culture, bead:T cell 1:3, temsirolimus 1.0 μM, Vitamin D 0.1 nM, Daclizumab 50 μg/ml): beneficial role in suppressing | Rictor expression (western blot, FIG. 6) [5]: did not abrogate | BIM expression (western blot, normalized by actin) [10]: beneficial role in suppressing

B2: IL-4: Th2 polarizing cytokine added to re-differentiation culture (protein, UniProt P05112 25-153, looked up)
Interleukin-4: HKCDITLQEIIKTLNSLTEQKTLCTELTVTDIFAASKNTTEKETFCRAATVLRQFYSHHEKDTRCLGATAQQFHRHKQLIRFLKRLDRNLWGLAGLNSCPVKEANQSTLENFLERLKTIMREKYSKCSS
GM-CSF secretion [11]: higher levels | IFN-γ secretion [11]: higher levels | TNF-α secretion [11]: higher levels | frequency of GATA3-positive T cells [12]: greatly reduced frequency of GATA3-positive T cells
